Measurements from US20230372318A1, “METHODS FOR TREATING A SUBJECT HAVING MULTIPLE SYSTEM ATROPHY” (Theravance Biopharma R&D IP, LLC, priority 2022, published 2023).

Test system: subjects with primary autonomic failures (MSA, PD, or PAF) and symptomatic nOH
Experiment: Phase 3 22-week randomized withdrawal study in symptomatic nOH (Example 7)
Format: in vivo, human
Set-up: OHSA composite score, LS Mean / OHSA composite score, Mean / OHSA composite score, Median / OHSA composite score, LS Mean Difference / OHDAS item 1 (standing for a short time) score, Mean / OHDAS item 1 (standing for a short time) score, Median / OHDAS item 1 (standing for a short time) score, LS Mean / OHDAS item 1 (standing for a short time) score, LS Mean Difference: scale not given here
Settings: for OHSA composite score, Mean / OHSA composite score, Median / OHSA composite score, LS Mean Difference / OHSA composite score, LS Mean: change at week 22, end of 6-week double-blind period; for OHDAS item 1 (standing for a short time) score, LS Mean / OHDAS item 1 (standing for a short time) score, Mean / OHDAS item 1 (standing for a short time) score, Median / OHDAS item 1 (standing for a short time) score, LS Mean Difference: week 22, end of 6-week double-blind period
Procedure: The study consisted of a 16-week open-label (OL) treatment period with ampreloxetine followed by a 6-week double-blind randomized withdrawal period where subjects were administered either ampreloxetine or placebo.
Eligible subjects were either (i) completers of the study of Example 6 (“Completers Group”), or (ii) symptomatic nOH subjects meeting all applicable study inclusion criteria and none of the applicable exclusion criteria (“De Novo Group”).
A 4-week screening period applied to the De Novo Group only and the Screening visit was conducted in clinic for all De Novo Group subjects.
A total of 203 subjects entered this study (170 subjects from Example 6 (85 from the ampreloxetine group and 85 from the placebo group) and 33 de novo subjects). During the OL period, 55 subjects discontinued treatment. At 16 weeks, 64 subjects were randomized to the ampreloxetine group (6 subjects discontinued the study) and 64 subjects were randomized to the placebo group (3 subjects discontinued the study). A total of 119 subjects completed the study. Of the 128 subjects entering the randomized period, 40 subjects had MSA (31%); 68 subjects had PD (53%); and 20 subjects had PAF (16%) (in each category, the subjects were split equally between ampreloxetine and placebo).
Beginning on Day 2, subjects received a single dose of 10 mg ampreloxetine once daily (QD) and continued thereafter for the 16-week duration of the OL treatment period. Following this 16-week OL treatment period, subjects were randomized to either continue on the active treatment or placebo (“PBO”) for a period of 6 weeks.
Subjects enrolled into the OL period of the study had visits scheduled for Day 15, Day 29, and every 4 weeks thereafter for assessments as outlined in the Schedule of Study Procedures. […] Those subjects not meeting this continuation criterion were discontinued and underwent an end of study visit. The end of study visit was completed within 2 weeks from the date of the last dose.
Following the completion of a total of 16 weeks OL treatment with ampreloxetine (V6), subjects were assessed for randomization in a 1:1 manner. Eligible subjects received 6 weeks of double-blind treatment of ampreloxetine or PBO once daily. Only subjects with OHSA #1 score of ≤7 were eligible for randomization for the double-blind treatment period.
Exploratory assessments included: orthostatic standing test; NMSS; EQ-5D-5L; HADS; and BSFC-s. For subjects with PD, exploratory assessments included: Unified Parkinson's Disease Rating Scale (UPDRS); and Parkinson's Disease Questionaire-8 (PDQ-8). For subjects with MSA, exploratory assessments included: Unified Multiple System Atrophy Rating Scale (UMSARS); and Composite Autonomic Symptom Score-31 (COMPASS-31).
The secondary endpoints included: • (a) Change from baseline in OHSA #1 at Week 6 post randomization (V9, D155); • (b) Change from baseline in OHSA composite score at Week 6 post randomization (V9, D155); • (c) Change from baseline in OHDAS composite score at Week 6 post randomization (V9, D155); • (d) Change from baseline in PGI-S at Week 6 post randomization (V9, D155); • (e) Change from baseline in percentage of time spent in standing position as measured by a wearable device at Week 6 post randomization (V9, D155); and • (f) Change from baseline in average number of steps taken as measured by a wearable device at Week 6 post randomization (V9, D155).

[1] = MSA subjects, Pre treatment baseline OHSA1 <7
[2] = MSA subjects, Pre treatment baseline OHSA1 >2
[3] = MSA subjects, Pre treatment baseline OHSA1 >=7
[4] = MSA subjects, Pre treatment baseline OHSA Composite <5.3
[5] = MSA subjects, Pre treatment baseline OHSA Composite >=5.3
[6] = MSA subjects, RW baseline OHSA1 <=2
[7] = MSA subjects, RW baseline OHSA Composite <2.5
[8] = MSA subjects, RW baseline OHSA Composite >=2.5
[9] = MSA subjects, UMSARS Part IV <4
[10] = MSA subjects, UMSARS Part IV <4, vs placebo
[11] = MSA subjects, UMSARS Part IV >=4
[12] = MSA subjects, UMSARS Part IV >=4, vs placebo
[13] = MSA subjects, nOH onset <1.6 years
[14] = MSA subjects, nOH onset <1.6 years, vs placebo
[15] = MSA subjects, nOH onset >=1.6 years
[16] = MSA subjects, nOH onset >=1.6 years, vs placebo
[17] = MSA subjects, end of 6-week double-blind randomized period, FIG. 3
[18] = MSA subjects, week 22, 10 mg, N 19

Fc1cc(F)c(OCc2ccccc2C2CCNCC2)c(F)c1 [Ampreloxetine, 4-[2-(2,4,6-trifluorophenoxymethyl)phenyl]piperidine]
OHSA composite score, Mean [1]: −0.11
OHSA composite score, Median [1]: −0.1
OHSA composite score, LS Mean Difference (MSA subjects, Pre treatment baseline OHSA1 <7, vs placebo): −1.08
OHSA composite score, LS Mean [2]: −0.77
OHSA composite score, Mean [2]: −0.96
OHSA composite score, Median [2]: −0.6
OHSA composite score, LS Mean Difference (MSA subjects, Pre treatment baseline OHSA1 >2, vs placebo): −1.99
OHSA composite score, LS Mean [3]: 0.41
OHSA composite score, Mean [3]: 0.00
OHSA composite score, Median [3]: 0.5
OHSA composite score, LS Mean Difference (MSA subjects, Pre treatment baseline OHSA1 >=7, vs placebo): −1.31
OHSA composite score, LS Mean [4]: −0.71
OHSA composite score, Mean [4]: −0.56
OHSA composite score, Median [4]: −0.05
OHSA composite score, LS Mean Difference (MSA subjects, Pre treatment baseline OHSA Composite <5.3, vs placebo): −1.96
OHSA composite score, LS Mean [5]: 0.76
OHSA composite score, Mean [5]: 0.46
OHSA composite score, Median [5]: 0.3
OHSA composite score, LS Mean Difference (MSA subjects, Pre treatment baseline OHSA Composite >=5.3, vs placebo): −0.97
OHSA composite score, LS Mean [6]: 0.74
OHSA composite score, Mean [6]: 0.86
OHSA composite score, Median [6]: 0.25
OHSA composite score, LS Mean Difference (MSA subjects, RW baseline OHSA1 <=2, vs placebo): −0.91
OHSA composite score, LS Mean [7]: 0.95
OHSA composite score, Mean [7]: 0.98
OHSA composite score, Median [7]: 0.4
OHSA composite score, LS Mean Difference (MSA subjects, RW baseline OHSA Composite <2.5, vs placebo): −0.90
OHSA composite score, LS Mean [8]: −0.92
OHSA composite score, Mean [8]: −0.90
OHSA composite score, Median [8]: −0.5
OHSA composite score, LS Mean Difference (MSA subjects, RW baseline OHSA Composite >=2.5, vs placebo): −1.96
OHSA composite score, LS Mean [9]: 0.01
OHSA composite score, Mean [9]: −0.04
OHSA composite score, Median [9]: 0.25
OHSA composite score, LS Mean Difference [10]: −1.70
OHDAS item 1 (standing for a short time) score, LS Mean [9]: −0.3
OHDAS item 1 (standing for a short time) score, Mean [9]: −0.3
OHDAS item 1 (standing for a short time) score, Median [9]: 0.0
OHDAS item 1 (standing for a short time) score, LS Mean Difference [10]: −2.8
OHSA composite score, LS Mean [11]: −0.17
OHSA composite score, Mean [11]: −0.15
OHSA composite score, Median [11]: −0.15
OHSA composite score, LS Mean Difference [12]: −1.44
OHDAS item 1 (standing for a short time) score, LS Mean [11]: 0.5
OHDAS item 1 (standing for a short time) score, Mean [11]: 1.0
OHDAS item 1 (standing for a short time) score, Median [11]: 1.0
OHDAS item 1 (standing for a short time) score, LS Mean Difference [12]: 1.9
OHSA composite score, LS Mean [13]: 0.48
OHSA composite score, Mean [13]: 0.43
OHSA composite score, Median [13]: 0.50
OHSA composite score, LS Mean Difference [14]: −1.33
OHDAS item 1 (standing for a short time) score, LS Mean [13]: −0.3
OHDAS item 1 (standing for a short time) score, Mean [13]: −0.3
OHDAS item 1 (standing for a short time) score, Median [13]: 0.0
OHDAS item 1 (standing for a short time) score, LS Mean Difference [14]: −2.4
OHSA composite score, LS Mean [15]: −0.45
OHSA composite score, Mean [15]: −0.41
OHSA composite score, Median [15]: −0.20
OHSA composite score, LS Mean Difference [16]: −1.56
OHDAS item 1 (standing for a short time) score, LS Mean [15]: −0.3
OHDAS item 1 (standing for a short time) score, Mean [15]: −0.1
OHDAS item 1 (standing for a short time) score, Median [15]: 0.0
OHDAS item 1 (standing for a short time) score, LS Mean Difference [16]: −0.8
OHDAS composite score, change (MSA subjects, 6-week double-blind randomized period, placebo +0.97, p=0.196): +0.16
Systolic blood pressure upon standing for 3 minutes, mean change (MSA subjects, 6-week double-blind randomized period, placebo −12.4): +6.1 mmHg
Quality of life, EQ-5D-5L visual analog scale (MSA subjects, FIG. 4, vs placebo): quality of life declines less or improves
OHDAS walking long time [17]: favor placebo
OHSA and OHDAS composite scores and individual subscores [17]: all favor ampreloxetine
OHSA item 1 score, change (MSA subjects, end of 6-week double-blind randomized withdrawal period, placebo +1.8, p=0.0861): +0.3
Anxiety Total Score, Change from Baseline, LS Mean Difference (SE) (MSA subjects, week 22, 10 mg vs placebo, P-value 0.0343): −1.26 (0.573)
Anxiety Total Score, Change from Baseline, LS Mean (SE) [18]: −1.05 (0.405)
Anxiety Total Score, Change from Baseline, Mean (SD) [18]: −1.05 (1.900)
Anxiety Total Score, Change from Baseline, Median [18]: −1.00
OHQ composite scores for subgroups (subgroups of MSA subjects, week 22, FIG. 6): all favored ampreloxetine
